Converted amounts (≈) assume the structure as drawn.
How the values were obtained:
Abs. corym. 1 = assay: Agar dilution test, minimal inhibitory concentration in vitro; type: cell-based; details: read-out: Minimale Hemmkonzentration (MHK) Abs. corym. 1
Excerpt: (§1) Die Wirkung gegen Dermatophyten, Bakterien und Protozonen kann nach Methoden, wie sie beispielsweise in P. Klein, Bakteriologische Grundlagen der chemotherapeutischen Laboratoriumspraxis, Springer-Verlag Berlin, 1957, beschrieben wird, aufgezeigt werden. Die überraschende Wirkung gegenüber Hefen wurde im Pseudomyzel- und Myzelphasentest mit Candida albicans nachgewiesen (vgl. DE-OS 30 10 093). Es wurde geprüft, welche minimalen Hemmkonzentrationen (MHK-Werte) im Agardilutionstest erreicht werden. In der Tabelle 1 sind die Ergebnisse zusammengefaßt.

Aps.fum. 2 = assay: as above; type: cell-based; details: read-out: Minimale Hemmkonzentration (MHK) Aps.fum. 2
Excerpt: as §1

E.coli muta-flor = assay: as above; type: cell-based; details: Escherichia coli, read-out: Minimale Hemmkonzentration (MHK) E.coli muta-flor
Excerpt: as §1

Epid. flocc. 157 = assay: as above; type: cell-based; details: read-out: Minimale Hemmkonzentration (MHK) Epid. flocc. 157
Excerpt: as §1

Microsp. ferrug. 5 = assay: as above; type: cell-based; details: read-out: Minimale Hemmkonzentration (MHK) Microsp. ferrug. 5
Excerpt: as §1

Mucor pus. 6 = assay: as above; type: cell-based; details: read-out: Minimale Hemmkonzentration (MHK) Mucor pus. 6
Excerpt: as §1

Staph. aur. SG 511 = assay: as above; type: cell-based; details: read-out: Minimale Hemmkonzentration (MHK) Staph. aur. SG 511
Excerpt: as §1

Strept. faec. 8043 = assay: as above; type: cell-based; details: read-out: Minimale Hemmkonzentration (MHK) Strept. faec. 8043
Excerpt: as §1

Trichoph. ment. 21 = assay: as above; type: cell-based; details: read-out: Minimale Hemmkonzentration (MHK) Trichoph. ment. 21
Excerpt: as §1

Cand.alb. H = assay: Candida albicans pseudomycelium/mycelium phase test, MIC; type: cell-based; details: in vitro, column H, read-out: Minimale Hemmkonzentration (MHK) Cand.alb. H
Excerpt: as §1

Entamoeb hist. = assay: Minimal inhibitory concentration in vitro (protozoa); type: cell-based; details: read-out: Minimale Hemmkonzentration (MHK) Entamoeb hist.
Excerpt: as §1

Trichom. vag. = assay: as above; type: cell-based; details: read-out: Minimale Hemmkonzentration (MHK) Trichom. vag.
Excerpt: as §1

[1] = test system: Weizenbraunrost (Puccinia recondita); assay: Versuch 2: activity against wheat brown rust on wheat seedlings; type: in vivo; details: 0,025; 0,006; 0,0015 %ige Spritzbrühen; sprayed 24 h after inoculation; assessed after 8 days; value given as 'beispielsweise'
Protocol: Blätter von in Töpfen gewachsenen Weizensämlingen der Sorte "Jubilar" wurden mit Sporen des Braunrostes (Puccinia recondita) bestäubt. Danach wurden die Töpfe für 24 Stunden bei 20 bis 22°C in eine Kammer mit hoher Luftfeuchtigkeit (90 bis 95 %) gestellt. Während dieser Zeit keimten die Sporen aus und die Keimschläuche drangen in das Blattgewebe ein. Die infizierten Pflanzen wurden anschließend mit wäßrigen Spritzbrühen, die 80 % Wirkstoff und 20 % Emulgiermittel in der Trockensubstanz enthielten, tropfnaß gespritzt. Nach dem Antrocknen des Spritzbelages wurden die Versuchspflanzen im Gewächshaus bei Temperaturen zwischen 20 und 22°C und 65 bis 70 % relativer Luftfeuchte aufgestellt. Nach 8 Tagen wurde das Ausmaß der Rostpilzentwicklung auf den Blättern ermittelt.

Botrytis cinerea = assay: Versuch 4: activity against Botrytis cinerea on paprika seedlings; type: in vivo; details: 0,05 %ige Spritzbrühe; sprayed before inoculation; assessed after 5 days; value given as 'beispielsweise'
Excerpt: Paprikasämlinge der Sorte "Neusiedler Ideal Elite" wurden, nachdem sich 4 bis 5 Blätter gut entwickelt hatten, mit wäßrigen Suspensionen, die 80 % Wirkstoff und 20 % Emulgiermittel in der Trockensubstanz enthielten, tropfnaß gespritzt. Nach dem Antrocknen des Spritzbelages wurden die Pflanzen mit einer Konidienaufschwemmung des Pilzes Botrytis cenerea besprüht und bei 22 bis 24 C in eine Kammer mit hoher Luftfeuchtigkeit gestellt. Nach 5 Tagen hatte sich die Krankheit auf den unbehandelten Kontrollpflanzen so stark entwickelt, daß die entstandenen Blattnekrosen den überwiegenden Teil der Blätter bedeckten.

Pullularia pullulans = assay: Versuch 5: filter paper disc inhibition zone test on malt extract agar; type: cell-based; details: 72 h, discs soaked with 0,2 ml of 200 ppm solution, 3 days at 22 to 24 °C, read-out: Wirksamkeit gegen Pullularia pullulans
Protocol: Filtrierpäpierscheiben mit einem Durchmesser von 13 mm und einer Stärke von 1 mm werden mit 0,2 ml Lösungen getränkt, die jeweils 200 Teile Wirkstoff je Million Teile Lösung (ppm) enthalten. Die Scheiben werden dann auf einem 2 %igen Malzextraktagar in Petrischalen gelegt, die zuvor getrennt mit Sporen des holzverfärbenden Pilzes Pullularia pullulans beimpft wurden. Anschließend werden die Schalen 3 Tage lang bei 22 bis 24 °C bebrütet. Nach dieser Zeit hat sich der Pilz in den Kontrollschalen sehr gut entwickelt.
Die fungizide Wirksamkeit der Wirkstoffe wird anhand der um die Filtrierpapierscheiben herum entstandenen pilzfreien Zonen (Hemmhöfe) wie folgt beurteilt: […]

Chaetomium globosum = assay: Versuch 6: fungal growth on malt extract agar containing active ingredient; type: cell-based; set-up: key: 0 = kein Pilzwachstum (Pilzmyzel abgetötet); 1 = geringes Pilzwachstum (bis 1/3 der Agaroberfläche bewachsen); 3 = mittleres Pilzwachstum (bis 2/3 der Agaroberfläche bewachsen); 5 = ungehemmtes Pilzwachstum (gesamte Agaroberfläche bewachsen); details: 40 ppm in 5 % malt extract agar; 5 days at 25 °C; growth score
Excerpt: (§2) Die Wirkstoffe werden in Aceton gelöst, in Mengen von 40 ppm einem verflüssigten 5 %igen Malzextraktagar zugesetzt. Der Agar wird in Petrischalen ausgegossen und nach dem Erstarren werden die fungizidhaltigen Nähragarplatten zentral mit Myzel der holzzerstörenden Pilze Coniophora puteana und Trametes versicolor, des Moderfäule und Stockflecken verursachenden Pilzes Chaetomium globosum sowie mit Sporen des grünen Holzschimmels Trichoderma viride beimpft.
(§3) Nach fünftägiger Bebrütung der Schalen bei 25 °C wird die Entwicklung der Pilzkolonien auf dem Nährboden im Vergleich mit der Kontrolle (ohne Wirkstoff-Zusatz) beurteilt: • 0 = kein Pilzwachstum (Pilzmyzel abgetötet) • 1 = geringes Pilzwachstum (bis 1/3 der Agaroberfläche bewachsen) • 3 = mittleres Pilzwachstum (bis 2/3 der Agaroberfläche bewachsen) • 5 = ungehemmtes Pilzwachstum (gesamte Agaroberfläche bewachsen)

Coniophora puteana = assay: as above; type: cell-based; set-up: key: 0 = kein Pilzwachstum (Pilzmyzel abgetötet); 1 = geringes Pilzwachstum (bis 1/3 der Agaroberfläche bewachsen); 3 = mittleres Pilzwachstum (bis 2/3 der Agaroberfläche bewachsen); 5 = ungehemmtes Pilzwachstum (gesamte Agaroberfläche bewachsen); details: 40 ppm in 5 % malt extract agar; 5 days at 25 °C; growth score
Excerpt: as §2, §3

Trametes versicolor = assay: as above; type: cell-based; set-up: key: 0 = kein Pilzwachstum (Pilzmyzel abgetötet); 1 = geringes Pilzwachstum (bis 1/3 der Agaroberfläche bewachsen); 3 = mittleres Pilzwachstum (bis 2/3 der Agaroberfläche bewachsen); 5 = ungehemmtes Pilzwachstum (gesamte Agaroberfläche bewachsen); details: 40 ppm in 5 % malt extract agar; 5 days at 25 °C; growth score
Excerpt: as §2, §3

Trichoderma viride = assay: as above; type: cell-based; set-up: key: 0 = kein Pilzwachstum (Pilzmyzel abgetötet); 1 = geringes Pilzwachstum (bis 1/3 der Agaroberfläche bewachsen); 3 = mittleres Pilzwachstum (bis 2/3 der Agaroberfläche bewachsen); 5 = ungehemmtes Pilzwachstum (gesamte Agaroberfläche bewachsen); details: 40 ppm in 5 % malt extract agar; 5 days at 25 °C; growth score
Excerpt: as §2, §3

Cand.alb. M = assay: Candida albicans pseudomycelium/mycelium phase test, MIC (column M); type: cell-based; details: in vitro, read-out: Minimale Hemmkonzentration (MHK) Cand.alb. M
Excerpt: as §1

[2] = test system: Weizenmehltau (Erysiphe graminis var. tritici); assay: Versuch 1: activity against wheat powdery mildew on wheat seedlings; type: in vivo; details: 0,025; 0,006; 0,0015 %ige Spritzbrühen; sprayed 24 h before inoculation; assessed after 7 days; value given as 'beispielsweise'
Protocol: Blätter von in Töpfen gewachsenen Weizenkeimlingen der Sorte "Jubilar" wurden mit wäßriger Spritzbrühe, die 80 % (Gew.%) Wirkstoff und 20 % Emulgiermittel in der Trockensubstanz enthielt, besprüht und 24 Stunden nach dem Antrocknen des Spritzbelages mit Oidien (Sporen) des Weizenmehltaus (Erysiphe graminis var. tritici) bestäubt. Die Versuchspflanzen wurden anschließend im Gewächshaus bei Temperaturen zwischen 20 und 22 °C und 75 bis 80 % relativer Luftfeuchtigkeit aufgestellt. Nach 7 Tagen wurde das Ausmaß der Mehltauentwicklung ermittelt.

[3] = test system: Gurkenmehltau (Erysiphe cichoracearum); assay: Versuch 3: activity against cucumber powdery mildew on cucumber seedlings; type: in vivo; details: 0,025 %ige Spritzbrühe; sprayed about 20 h after inoculation; assessed after 21 days; value given as 'beispielsweise'
Excerpt: Blätter von in Töpfen gewachsenen Gurkenkeimlingen der Sorte "Chinesische Schlange" wurden im Zweiblattstadium mit einer Sporensuspension des Gurkenmehltaus (Erysiphe cichoracearum) besprüht. Nach etwa 20 Stunden wurden die Versuchspflanzen mit wäßriger Spritzbrühe, die 80 % Wirkstoff und 20 % Emulgiermittel in der Trockensubstanz enthielt, bis zur Tropfnässe besprüht. Nach dem Antrocknen des J Spritzbelages wurden sie anschließend im Gewächshaus bei Temperaturen zwischen 20 und 22^00 und 70 bis 80 % relativer Luftfeuchtigkeit aufgestellt. Zur Beurteilung der Wirksamkeit der neuen Stoffe wurde das Ausmaß der Pilzentwicklung nach 21 Tagen beurteilt.

SMILES	MIC (Abs. corym. 1) [µg/mL]	MIC (Aps.fum. 2) [µg/mL]	MIC (E.coli muta-flor) [µg/mL]	MIC (Epid. flocc. 157) [µg/mL]	MIC (Microsp. ferrug. 5) [µg/mL]	MIC (Mucor pus. 6) [µg/mL]	MIC (Staph. aur. SG 511) [µg/mL]	MIC (Strept. faec. 8043) [µg/mL]	MIC (Trichoph. ment. 21) [µg/mL]	MIC (Cand.alb. H) [µg/mL]	MIC (Entamoeb hist.) [µg/mL]	MIC (Trichom. vag.) [µg/mL]	fungizide Wirkung gegen Botrytis cinerea an Paprika (Botrytis cinerea) [%]	zone of inhibition at 200 ppm (Pullularia pullulans) [mm]	Wirksamkeit gegen Chaetomium globosum (Chaetomium globosum)	Wirksamkeit gegen Coniophora puteana (Coniophora puteana)	Wirksamkeit gegen Trametes versicolor (Trametes versicolor)	Wirksamkeit gegen Trichoderma viride (Trichoderma viride)	MIC (Cand.alb. M) [µg/mL]	also measured
Clc1ccc(C2(Cn3cncn3)OC2c2ccc(Cl)cc2Cl)cc1 (single isomer, unassigned) [Beispiel 3, 2-(1,2,4-Triazol-1-yl--methyl)-2-(4-chlorphenyl)-3-(2,4-dichlorphenyl)-oxiran]	2 (≈ 5.25 µM)	> 128	> 128	4 (≈ 10.5 µM)	2 (≈ 5.25 µM)	1 (≈ 2.63 µM)	32 (≈ 84.1 µM)	> 128	8 (≈ 21 µM)	> 128	> 1	> 16	97	–	–	–	–	–	–	fungizide Wirkung gegen Weizenbraunrost [1]: 100%
Fc1ccc(C2OC2(Cn2cncn2)c2ccc(Cl)cc2)cc1 (single isomer, unassigned) [Beispiel 50]	–	–	–	–	–	–	–	–	–	–	–	–	–	> 6	0	0	0	0	–	–
Clc1ccc(C2(Cn3ccnc3)OC2c2ccc(Cl)cc2Cl)cc1 (single isomer, unassigned) [Beispiel 1, 2-(1H-Imidazol-1-yl-methyl)-2-(4-chlorphenyl)-3-(2,4-dichlorphenyl)-oxiran]	0.5 (≈ 1.32 µM)	1 (≈ 2.63 µM)	> 128	0.5 (≈ 1.32 µM)	–	1 (≈ 2.63 µM)	16 (≈ 42.1 µM)	128 (≈ 337 µM)	0.5 (≈ 1.32 µM)	16 (≈ 42.1 µM)	–	> 16	97	–	–	–	–	–	< 0.0039	fungizide Wirkung gegen Weizenmehltau [2]: 100%; fungizide Wirkung gegen Gurkenmehltau [3]: 100%
COc1cccc(C2OC2(Cn2ccnc2)c2ccc(Cl)cc2)c1 (single isomer, unassigned) [Beispiel 29]	8 (≈ 23.5 µM)	16 (≈ 46.9 µM)	> 128	2 (≈ 5.87 µM)	2 (≈ 5.87 µM)	4 (≈ 11.7 µM)	16 (≈ 46.9 µM)	4 (≈ 11.7 µM)	2 (≈ 5.87 µM)	128 (≈ 376 µM)	> 1	> 16	–	–	–	–	–	–	0.25 (≈ 0.734 µM)	–
CC1(Cn2cncn2)OC1c1ccc(Cl)cc1Cl (single isomer, unassigned) [Beispiel 22]	–	–	–	–	–	–	–	–	–	–	–	–	–	> 6	1	1	0	1	–	–
